Reference: patent US20110053770A1, “SUBSTITUTED AMINOTHIAZOLES AND THEIR USE AS FUNGICIDES” (BAYER CROPSCIENCE AG, priority 2009, published 2011)
Read-outs that look alike come from different tables or passages of the source. Marks after values point to notes of the source that are not given here.

Assay: logP by HPLC on reversed-phase columns (C 18), EEC directive 79/831 Annex V.A8
Assay type: physicochemical
Conditions: for chromatographic logP: reversed-phase HPLC column (C 18)
Description: Calibration was carried out using unbranched alkan-2-ones (having from 3 to 16 carbon atoms) with known logP values (the logP values were determined by the retention times using linear interpolation between two successive alkanones).

[1] = LC-MS, acidic range, pH 2.7, 0.1% aqueous formic acid and acetonitrile
[2] = LC-MS, neutral range, pH 7.8, 0.001 molar aqueous ammonium bicarbonate and acetonitrile
[3] = acidic range, pH 2.3, 0.1% aqueous phosphoric acid and acetonitrile

SMILES	log P (**) [1]	log P (***) [2]	log P (*) [3]	chromatographic logP (LC-MS, acidic range, pH 2.7, 0.1% aqueous formic acid and acetonitrile, read-out: log P (**))	chromatographic logP (LC-MS, neutral range, pH 7.8, 0.001 molar aqueous ammonium bicarbonate and acetonitrile, read-out: log P (***))	chromatographic logP (acidic range, pH 2.3, 0.1% aqueous phosphoric acid and acetonitrile, read-out: log P (*))
CC(=O)N1CCCCC1=Nc1nc(-c2cccc(F)c2F)cs1 [compound 37, 1-[(2E/Z)-2-{[4-(2,3-difluorophenyl)-1,3-thiazol-2-yl]imino}piperidin-1-yl]ethanone]	3.63**; 3.63***; 3.63*	3.63**; 3.63***; 3.63*	3.63**; 3.63***; 3.63*	–	–	–
COc1ccc(-c2csc(N=C3CCCCN3)n2)cc1OC [compound 27, 4-(3,4-dimethoxyphenyl)-N-[(2E/Z)-piperidin-2-ylidene]-1,3-thiazole-2-amine]	1.35	2.36	1.35	–	–	–
Fc1ccc(-c2csc(N=C3CCCCN3)n2)cc1Cl [compound 30, 4-(3-chloro-4-fluorophenyl)-N-[(2E/Z)-piperidin-2-ylidene]-1,3-thiazole-2-amine]	1.76	3.45	1.76	–	–	–
Fc1ccc(-c2csc(N=C3CCCCN3)n2)cc1 [compound 54, 4-(4-fluorophenyl)-N-[(2E/Z)-piperidin-2-ylidene]-1,3-thiazole-2-amine]	–	–	1.23*	–	–	–
Clc1ccc(Cc2ccccc2-c2csc(N=C3CCCCN3)n2)cc1 [compound 93, 4-[2-(4-chlorobenzyl)-phenyl]-N-[(2E/Z)-piperidin-2-ylidene]-1,3-thiazole-2-amine]	2.17	4.7	–	–	–	–
COc1ccc(-c2ccccc2-c2csc(N=C3CCCCN3)n2)cc1 [compound 67, 4-(4′-methoxybiphenyl-2-yl)-N-[(2E/Z)-piperidin-2-ylidene]-1,3-thiazole-2-amine]	1.83**	–	–	–	–	–
CC(=O)N1CCCCC1=Nc1nc(-c2cccc(F)c2F)c(C)s1 [compound 43, 1-[(2E/Z)-2-{[4-(2,3-difluorophenyl)-5-methyl-1,3-thiazol-2-yl]imino}piperidin-1-yl]ethanone]	3.37**; 3.37***; 3.37*	3.37**; 3.37***; 3.37*	3.37**; 3.37***; 3.37*	–	–	–
CC(C)(C)c1cc(Oc2ccccc2-c2csc(N=C3CCCN3)n2)ccc1Cl [compound 101, 4-[2-(3-tert-butyl-4-chlorophenoxy)phenyl]-N-[(2E/Z)-pyrrolidin-2-ylidene]-1,3-thiazole-2-amine]	3.09	5.53	3.09	–	–	–
Brc1cccc(-c2csc(N=C3CCCCN3)n2)c1 [compound 106, 4-(3-bromophenyl)-N-[(2E/Z)-piperidin-2-ylidene]-1,3-thiazole-2-amine]	1.53**	–	–	–	–	–
c1sc(N=C2CCCCN2)nc1CC1CC1 [compound 72, 4-(cyclopropylmethyl)-N-[(2E/Z)-piperidin-2-ylidene]-1,3-thiazole-2-amine]	–	2.73	1.07	–	–	–
CCOc1ccccc1-c1csc(N=C2CCCCN2C(C)=O)n1 [compound 33, 1-[(2E/Z)-2-{[4-(2-ethoxyphenyl)-1,3-thiazol-2-yl]imino}piperidin-1-yl]ethanone]	2.71	5.03	2.71	–	–	–
Cc1cccc(-c2cccc(-c3csc(N=C4CCCCN4)n3)c2)c1 [compound 71, 4-(3′-methylbiphenyl-3-yl)-N-[(2E/Z)-piperidin-2-ylidene]-1,3-thiazole-2-amine]	–	4.48	2.12	–	–	–
CC(=O)N1CCCCC1=Nc1nc(-c2cccc(C(F)(F)F)c2F)cs1 [compound 38, 1-[(2E/Z)-2-({4-[2-fluoro-3-(trifluoromethyl)phenyl]-1,3-thiazol-2-yl}imino)piperidin-1-yl]ethanone]	4.25	4.23	4.25	–	–	–
Clc1ccccc1-c1csc(N=C2CCCCN2)n1 [compound 20, 4-(2-chlorophenyl)-N-[(2E/Z)-piperidin-2-ylidene]-1,3-thiazole-2-amine]	1.63	3.19	1.63	–	–	–
c1ccc(Cc2ccccc2-c2csc(N=C3CCCCN3)n2)cc1 [compound 81, 4-(2-benzylphenyl)-N-[(2E/Z)-piperidin-2-ylidene]-1,3-thiazole-2-amine]	–	2.02***	–	–	–	–
FC(F)(F)Oc1ccc(-c2csc(N=C3CCCCN3)n2)cc1 [compound 50, N-[(2E/Z)-piperidin-2-ylidene]-4-[4-(trifluoromethoxy)phenyl]-1,3-thiazole-2-amine]	1.78**	–	–	–	–	–
Clc1ccc(-c2csc(N=C3CCCCN3)n2)cc1 [compound 103, 4-(4-chlorophenyl)-N-[(2E/Z)-piperidin-2-ylidene]-1,3-thiazole-2-amine]	1.68	3.47	1.68	–	–	–
Clc1ccc(-c2csc(N=C3CCCCN3)n2)c(Cl)c1 [compound 104, 4-(2,4-dichlorophenyl)-N-[(2E/Z)-piperidin-2-ylidene]-1,3-thiazole-2-amine]	1.76	3.92	1.76	–	–	–
COc1cccc(-c2csc(N=C3CCCCN3)n2)c1 [compound 57, 4-(3-methoxyphenyl)-N-[(2E/Z)-piperidin-2-ylidene]-1,3-thiazole-2-amine]	–	2.76	1.19	–	–	–
CC(=O)N1CCCCC1=Nc1nc(-c2ccc(Cl)cc2)cs1 [compound 34, 1-[(2E/Z)-2-{[4-(4-chlorophenyl)-1,3-thiazol-2-yl]imino}piperidin-1-yl]ethanone]	3.78**; 3.78***; 3.78*	3.78**; 3.78***; 3.78*	3.78**; 3.78***; 3.78*	–	–	–
CC(=O)N1CCCCC1=Nc1nc(-c2ccc(Cl)cc2)c(C)s1 [compound 42, 1-[(2E/Z)-2-{[4-(4-chlorophenyl)-5-methyl-1,3-thiazol-2-yl]imino}piperidin-1-yl]ethanone]	3.92	3.96	3.92	–	–	–
CC(=O)N1CCCCC1=Nc1nc(-c2ccc(Cl)cc2Cl)cs1 [compound 35, 1-[(2E/Z)-2-{[4-(2,4-dichlorophenyl)-1,3-thiazol-2-yl]imino}piperidin-1-yl]ethanone]	–	–	–	4.33	4.33	4.33
Cc1sc(N=C2CCCCN2)nc1-c1ccc(Cl)cc1 [compound 31, 4-(4-chlorophenyl)-5-methyl-N-[(2E/Z)-piperidin-2-ylidene]-1,3-thiazole-2-amine]	1.84	3.72	1.84	–	–	–
Clc1cccc(-c2csc(N=C3CCCCN3)n2)c1Cl [compound 24, 4-(2,3-dichlorophenyl)-N-[(2E/Z)-piperidin-2-ylidene]-1,3-thiazole-2-amine]	1.81	3.72	1.81	–	–	–

Results, then the compound that gave them:

log P (**) [1]	log P (***) [2]	log P (*) [3]	chromatographic logP (LC-MS, acidic range, pH 2.7, 0.1% aqueous formic acid and acetonitrile, read-out: log P (**))	chromatographic logP (LC-MS, neutral range, pH 7.8, 0.001 molar aqueous ammonium bicarbonate and acetonitrile, read-out: log P (***))	chromatographic logP (acidic range, pH 2.3, 0.1% aqueous phosphoric acid and acetonitrile, read-out: log P (*))	SMILES
2.11	3.9	2.11	–	–	–	Fc1ccc(Oc2ccccc2-c2csc(N=C3CCCCN3)n2)c(F)c1 [compound 7, 4-[2-(2,4-difluorophenoxy)phenyl]-N-[(2E/Z)-piperidin-2-ylidene]-1,3-thiazole-2-amine]
–	–	1.87*	–	–	–	Fc1ccc(Oc2ccccc2-c2csc(N=C3CCCCN3)n2)cc1 [compound 75, 4-[2-(4-fluorophenoxy)phenyl]-N-[(2E/Z)-piperidin-2-ylidene]-1,3-thiazole-2-amine]
–	3.78	1.8	–	–	–	Fc1cccc(F)c1Oc1ccccc1-c1csc(N=C2CCCCN2)n1 [compound 76, 4-[2-(2,6-difluorophenoxy)phenyl]-N-[(2E/Z)-piperidin-2-ylidene]-1,3-thiazole-2-amine]
1.77	3.54	1.77	–	–	–	FC(F)(F)Oc1ccccc1-c1csc(N=C2CCCCN2)n1 [compound 15, N-[(2E/Z)-piperidin-2-ylidene]-4-[2-(trifluoromethoxy)phenyl]-1,3-thiazole-2-amine]
2.66	4.9	–	–	–	–	Cc1ccc(Oc2ccccc2-c2csc(N=C3CCCCN3)n2)c(C)c1 [compound 1, 4-[2-(2,4-dimethylphenoxy)phenyl]-N-[(2E/Z)-piperidin-2-ylidene]-1,3-thiazole-2-amine]
2.49	4.43	2.49	–	–	–	Clc1ccc(Oc2ccccc2-c2csc(N=C3CCCN3)n2)c(Cl)c1 [compound 99, 4-[2-(2,4-dichlorophenoxy)phenyl]-N-[(2E/Z)-pyrrolidin-2-ylidene]-1,3-thiazole-2-amine]
2.52	2.48	–	–	–	–	Cc1ccc(Oc2ccccc2-c2csc(N=C3CCCN3)n2)c(C)c1 [compound 95, 4-[2-(2,4-dimethylphenoxy)phenyl]-N-[(2E/Z)-pyrrolidin-2-ylidene]-1,3-thiazole-2-amine]
–	3.55	1.98	–	–	–	Fc1ccc(Oc2ccccc2-c2csc(N=C3CCCN3)n2)c(F)c1 [compound 102, 4-[2-(2,4-difluorophenoxy)phenyl]-N-[(2E/Z)-pyrrolidin-2-ylidene]-1,3-thiazole-2-amine]
–	–	2.03*	–	–	–	Clc1ccc(Oc2ccccc2-c2csc(N=C3CCCCN3)n2)cc1 [compound 74, 4-[2-(4-chlorophenoxy)phenyl]-N-[(2E/Z)-piperidin-2-ylidene]-1,3-thiazole-2-amine]
1.77	3.35	1.77	–	–	–	CCOc1ccccc1-c1csc(N=C2CCCCN2)n1 [compound 23, 4-(2-ethoxyphenyl)-N-[(2E/Z)-piperidin-2-ylidene]-1,3-thiazole-2-amine]
–	3.96	2.02	–	–	–	Fc1cc(F)c(Oc2ccccc2-c2csc(N=C3CCCCN3)n2)c(F)c1 [compound 82, N-[(2E/Z)-piperidin-2-ylidene]-4-[2-(2,4,6-trifluorophenoxy)phenyl]-1,3-thiazole-2-amine]
